The melting point is the temperature of the solid-liquid transition.

This note sets out measurements from a melting point compilation (Tetko et al.).

Structures are written as SMILES.

On to `Cc1ccccc1CNc1ccccc1N`, for which the melting point lay within 71 to 73 °C.
Turning to `N#CC1(NC(=O)c2ccccc2)CCCC1`, the melting point lay within 130 to 132 °C.
To `COC(=O)c1ccoc1CSc1ccccc1C(=O)O` belongs 157 to 159 °C; to `Cc1cc(S(=O)(=O)Cl)ccc1OCC(=O)O`, 127 to 129 °C; to `COC(=O)c1cnn2c1CCCC2`, 64 to 66 °C.
To `COc1ccc(Cl)c(NC(=O)NN)c1` belongs 159 to 161 °C; to `NC(=O)c1c(NC(=O)CCl)sc2c1CCC2`, 181 to 183 °C.
`O=S(=O)(Cl)c1ccc(OCC(F)(F)F)nc1` returned a melting point of 55 to 57 °C.
The compound `Cc1cc(C)nc(-n2nc(C)cc2NC(=O)CCl)n1` registered a melting point of 185 to 187 °C.
To `CC1CCN(C(=O)c2ccc(N)cc2)CC1` belongs 118 to 120 °C; to `NCC(O)c1cc(Cl)c2c(c1)OCCO2` (stereo not given), 131 to 133 °C.
To `Nc1nc(-c2ccc(NC(=O)c3ccccc3)cc2)cs1` belongs 216 to 218 °C; to `COc1ccc(NC(=O)c2ccc(CCl)cc2)cc1`, 189 to 191 °C.
To `O=C(CCl)NCc1ccc(-c2ccc(Cl)cc2)o1` belongs 213 to 218 °C.
`C=CCN1C(=O)C(=O)N(CC(=O)O)C1=O`: the melting point was in the range of 143 to 145 °C.
As for `Cc1cc(CSc2ccccc2C(=O)O)on1`, the melting point is 157 to 161 °C.
The result for `NS(=O)(=O)c1ccc2c(c1)OCCO2` reads 197 to 199 °C; that for `CCc1ccc(C(C)CC(=O)O)cc1` (stereo not given), 65 to 67 °C.
As for `CS(=O)(=O)NCC1CCCNC1` (stereo not given), the melting point is 130 to 132 °C.
`Nc1ccc2c(N)n[nH]c2c1` had a melting point of 209 to 211 °C.
With `C#CC#CCCCCCC(=O)O`, the melting point was in the range of 35 to 37 °C.
The result for `Nc1cccc(-c2cc[nH]n2)c1` reads 137 to 139 °C; that for `Brc1ccc(-c2ncno2)cc1`, 109 to 111 °C; that for `O=C(O)C1CCCCN1c1ncccn1` (stereo not given), 156 to 158 °C.
For the compound `OCCNCc1ccc(Cl)c(Cl)c1`, the melting point was in the range of 54 to 56 °C.
As to `CN(Cc1cnn(C)c1)C(=O)CCl`, the melting point is 35 to 37 °C.
`O=C(O)CCc1ccc(-c2ccccc2)o1` displayed a melting point of 118 to 120 °C.
`Nc1ccc(S(=O)(=O)N2CCC(Cc3ccccc3)CC2)cc1` came in with a melting point of 153 to 155 °C.
The compound `CC(=O)Nc1cccc(C#N)c1` registered a melting point of 133 to 135 °C.
To `COc1ccc(NC(=O)CCCl)cc1` belongs 120 to 122 °C; to `O=C(NCC(F)(F)F)c1ccc(Br)cc1`, 119 to 121 °C; to `O=C(O)CCNc1ncc(C(F)(F)F)cc1Cl`, 131 to 133 °C.
To `CC(C(=O)O)C1CCOCC1` (stereo not given) belongs 39 to 41 °C; to `O=C(O)/C=C/c1ccc(OC(F)F)cc1OC(F)F`, 106 to 108 °C; to `Cc1nn(C)c(C)c1CC(=O)N1CCC(C(=O)O)CC1`, 167 to 169 °C.
The result for `COc1cc(C=O)ccc1OS(=O)(=O)c1cc(C)ccc1C` reads 82 to 84 °C; that for `Cc1cccc2c(Cl)ncnc12`, 131 to 133 °C.
The compound `c1ccc(-c2ccc3[nH]ccc3c2)cc1` yielded a melting point of 74 to 76 °C.
On to `COC(=O)C(=O)CC(=O)c1ccc(-c2ccccc2)cc1`, for which the melting point lay in the range of 142 to 144 °C.
To `CNc1cc(C(=O)O)c2ccccc2n1` belongs 346 to 348 °C; to `C#Cc1nc2ccccc2s1`, 39 to 41 °C; to `CS(=O)(=O)N1CCCc2cc(C(=O)O)ccc21`, 218 to 220 °C.
With `O=C(Nc1ccc(O)cc1)c1ccc(Cl)cc1`, the melting point fell in the range of 246 to 248 °C.
The compound `CCCc1nnc(N)s1` registered a melting point of 198 to 202 °C.
With `N#Cc1cc(F)cc(CO)c1`, the melting point was 59 to 61 °C.
In turn, `Nc1cccc(OCC(F)(F)F)c1` came in with a melting point of 34 to 36 °C.
As to `O=C(O)c1ccc(S(=O)(=O)C2CCCC2)cc1`, the melting point lay within 199 to 201 °C.
Consider `O=S(=O)(Cl)c1ccc(-n2cccn2)c(F)c1`, for which the melting point lay within 104 to 106 °C.
To `CC(C)CC(=O)NCCc1ccc(S(N)(=O)=O)s1` belongs 113 to 115 °C; to `Cc1ccc(C(=O)O)cc1NC(=O)Cc1ccncc1`, 294 to 296 °C.
To `O=C(O)c1cccc(-n2ccc(C(F)(F)F)n2)c1` belongs 159 to 161 °C.
To `O=Cc1cnc(-c2ccccn2)s1` belongs 149 to 151 °C.
In the case of `Sc1nc(-c2ccccc2Cl)no1`, the melting point lay within 100 to 102 °C.
The result for `Sc1nnc(C2CC2)n1Cc1ccco1` reads 260 to 262 °C; that for `CC(C)(C)OC(=O)Nc1ccncc1C=O`, 62 to 64 °C; that for `O=C1CSC(C(F)(F)F)O1` (stereo not given), 65 to 67 °C.
`Nc1ccc(-c2nnc3n2CCC3)cc1` had a melting point of 311 to 313 °C.
Compound `O=S(=O)(c1ccc(Cl)nc1)N1CCOCC1` returned a melting point of 143 to 145 °C.
In turn, `Nc1cc2c(cc1Br)NC(=O)CO2` gave a melting point of 209 to 211 °C.
The result for `O=C(O)c1ccsc1C(=O)O` reads 268 to 270 °C.
Take `O=C(c1cccnc1O)N1CCCNCC1`: the melting point was in the range of 157 to 159 °C.
The result for `NC(=O)N1CC=C(c2ccc(O)cc2)CC1` reads 244 to 246 °C.
`CCOC(=O)C(=O)c1cc(F)ccc1OC` showed a melting point of 49 to 51 °C.
For `COc1ccc2c(c1)CCC(=O)N2`, the melting point was in the range of 141 to 143 °C.
The result for `O=S(=O)(Cl)C=Cc1ccc(Br)cc1` reads 149 to 151 °C.
To `CC1(C)CCC(CC(=O)O)c2ccccc21` (stereo not given) belongs 81 to 83 °C; to `Cc1nc(O)ccc1I`, 209 to 211 °C.
The result for `CCCCCc1cc(N)on1` reads 40 to 42 °C; that for `Cc1c(C(=O)O)cc(S(N)(=O)=O)cc1[N+](=O)[O-]`, 172 to 174 °C.
The compound `Fc1ccc(-c2n[nH]cc2Br)cc1` registered a melting point of 141 to 143 °C.
In the case of `O=c1ccc2c([nH]1)CCC2`, the melting point was in the range of 35 to 39 °C.
To `NC(C(=O)O)c1cccc(Br)c1` (stereo not given) belongs 221 to 223 °C; to `CCOc1nnc(Cl)c2ccccc12`, 80 to 82 °C.
The result for `O=C(O)c1cc(Cl)cc(Br)c1O` reads 214 to 216 °C; that for `COC(=O)c1ccc(N)cc1F`, 109 to 111 °C; that for `N#Cc1cn(-c2ccc([N+](=O)[O-])cn2)nc1N`, 322 to 324 °C.
To `CC(C)CNC(=O)c1ccc(N)cc1` belongs 119 to 121 °C; to `C=CCOc1ccc(O)cc1`, 36 to 38 °C.
Consider `Cc1ccc(-n2c(S)nc3ccccc32)c(C)c1`, for which the melting point lay in the range of 192 to 194 °C.
To `O=C(O)c1ccc(N2CCCC2)c([N+](=O)[O-])c1` belongs 259 to 261 °C; to `CN(c1ccccc1)S(=O)(=O)c1cc(C(=O)O)ccc1Br`, 204 to 206 °C; to `COc1ccc(S(=O)(=O)N2CCc3ccccc32)cc1C(=O)O`, 136 to 138 °C.
In the case of `O=C(O)c1nc(Cl)ccc1F`, the melting point was in the range of 149 to 151 °C.
`CCOC(=O)c1sc(N(C)C)nc1C` returned a melting point of 39 to 41 °C.
To `Nc1cc(CCc2ccccc2)[nH]n1` belongs 58 to 60 °C; to `O=C(O)CNC(c1ccccc1)C(F)(F)F` (stereo not given), 191 to 193 °C; to `CCOC(=O)c1cnn2c(O)cc(CCl)nc12`, 215 to 217 °C.
As to `Cc1ccc(C)c(S(=O)(=O)Nc2cccc(C(=O)O)c2)c1`, the melting point lay within 217 to 219 °C.
To `CCOc1cc(C#N)cc(Br)c1O` belongs 140 to 142 °C; to `O=C(Nc1ccncc1)OCC(F)(F)F`, 193 to 195 °C; to `COc1ccc(C(=O)O)cc1-c1ccnn1C`, 225 to 227 °C.
The result for `CCOC(=O)c1ccc2c(c1)nc(CCl)n2CC` reads 91 to 93 °C; that for `COC(=O)c1ccc2c(c1)S(=O)(=O)N=C(C)N2`, 275 to 277 °C; that for `CCC(C)[C@H](NC(=O)N1CCCC1)C(=O)O` (stereo not given in full), 147 to 149 °C.
The result for `CC(C)(C)OC(=O)Nc1cnc(C(=O)O)cn1` reads 261 to 263 °C; that for `CC(=O)c1c(C)cc(C)c(CCl)c1C`, 74 to 76 °C; that for `N#CCc1ccc(OCc2ccc(Cl)nc2)cc1`, 99 to 101 °C.
In turn, `O=C(Nc1ccc(C(=O)O)c(O)c1)c1cc(F)cc(F)c1` showed a melting point of 269 to 271 °C.
To `CCCCc1nc(-c2cccc(O)c2)no1` belongs 51 to 53 °C.
To `Cc1cc(C)cc(Oc2ccc(N)cc2)c1` belongs 55 to 57 °C; to `O=C1OCCN1c1ccc(S(=O)(=O)Cl)cc1`, 168 to 170 °C.
To `O=C(O)CCCS(=O)(=O)c1ccc(Br)cc1` belongs 117 to 119 °C.
For the compound `Cc1cc([N+](=O)[O-])ccc1NC(=O)CCl`, the melting point is 118 to 120 °C.
The result for `Nc1nc(Cc2ccccc2)cs1` reads 89 to 91 °C; that for `COCC(C)NC(N)=O` (stereo not given), 73 to 75 °C.
The result for `CC1(c2ccccc2)NC(=O)N(CC(=O)O)C1=O` (stereo not given) reads 170 to 172 °C; that for `O=C(O)C(=O)Cc1ccc(Cl)cc1`, 192 to 194 °C; that for `COc1ccc(C(=O)N2CCN(C)CC2)cc1N`, 114 to 116 °C.
To `O=c1[nH]c(-c2cccnc2)cs1` belongs 225 to 227 °C; to `O=C(c1ccccc1)c1ccc(CBr)cc1`, 109 to 112 °C; to `CC(C)(C)n1ccnc1SCC(=O)O`, 174 to 176 °C.
In turn, `O=C1CNC(=O)N1Cc1ccc(Cl)c([N+](=O)[O-])c1` came in with a melting point of 183 to 185 °C.
To `Cc1nn(C)c2nc(C(C)C)cc(C(=O)O)c12` belongs 211 to 213 °C; to `O=C(O)c1cccc(-c2nnco2)c1`, 239 to 241 °C.
The result for `CCCc1cc(O)c2ccccc2n1` reads 168 to 170 °C; that for `CC(=O)c1ccc(C#N)c(F)c1`, 62 to 64 °C; that for `O=C1CS/C(=C/C(=O)C2CC2)N1`, 188 to 190 °C.
`CS(=O)(=O)c1ccc(C#N)cc1F` had a melting point of 146 to 148 °C.
The result for `NC(=S)Nc1cccc2ncccc12` reads 223 to 225 °C; that for `CCOC(=O)c1c(C)[nH]c(C(=O)C(C)Cl)c1C` (stereo not given), 148 to 150 °C.
